# In publication PMC3397457, “Preclinical Evaluation of Anticancer Efficacy and Pharmacological Properties of FBA-TPQ, a Novel Synthetic Makaluvamine Analog” (Marine Drugs, 2012):
# Tests used:
# [1] = test system: HPAC cells; assay: Annexin V apoptosis assay/flow cytometry, HPAC; type: cell-based, human; conditions: 1 µM, 48 h
# Procedure: The apoptotic cells were detected using a method reported previously. […] In HPAC cells, a 1 µM concentration of FBA-TPQ increased the apoptotic index two-fold higher than that seen in control cells (P < 0.01). […] In the Mia PaCa-2 cells, FBA-TPQ at 1 µM led to a three-fold increase in apoptosis (P < 0.01).
# Following a similar protocol as above, cells in early and late stages of apoptosis were detected using an Annexin V-FITC apoptosis detection kit from BioVision (Mountain View, CA, USA), according to the manufacturer’s protocol. For apoptosis experiments, 2–3 × 10^5 cells were exposed to the test compound (0, 0.1, 0.5 and 1.0 µM) and incubated for 48 h prior to analysis. Cells were collected and washed with serum-free media. Cells were then re-suspended in 500 µL of Annexin V binding buffer followed by addition of 5 µL of Annexin V-FITC and 5 µL of propidium iodide (PI). The samples were incubated in the dark for 5 min at room temperature and analyzed with a Becton Dickinson FACSCalibur instrument (Ex = 488 nm; Em = 530 nm). Cells that were positive for Annexin V-FITC alone (early apoptosis) and Annexin V-FITC and PI (late apoptosis) were counted. The apoptotic index was calculated against the untreated control cells.
# [2] = test system: HPAC cells; assay: MTT cell survival assay, HPAC; type: cell-based; conditions: Homo sapiens, 72 h, read-out: Cytotoxicity IC50
# Procedure: We evaluated the effects of FBA-TPQ on the survival of several human pancreatic cancer cell lines, including HPAC (p53^+/+), Panc-1(p53^+/−), and Mia PaCa-2(p53^+/−), as well as normal IRM90 fetal fibroblast cells (Figure 2a). Cells were exposed to various concentrations of the test compound (0–10 µM) for 72 h, and cell survival rates were determined by the MTT assay, using a procedure reported previously. FBA-TPQ exerted potent effects against the test cancer cell lines, leading to significant decreases in cell viability.
# Human pancreatic cancer cells were obtained from the American Type Culture Collection (Rockville, MD). All cell culture media contained 10% FBS and 1% penicillin/streptomycin. […]
# The effect of the test compound on human pancreatic cancer cell viability, expressed as the percentage of cell survival, was determined using the MTT (3-(4,5-dimethylthiazol-2-yl)-2,5-diphenyl tetrazolium bromide) assay. […] The absorbance at 570 nm was recorded using an OPTImax microplate reader (Molecular Devices; Sunnyvale, CA, USA). The cell survival percentages were calculated by dividing the mean OD of compound-containing wells by that of DMSO-containing control wells. […]
smiles,measurement,setting,value
"O=C1C(NCc2ccc(F)cc2)=CC2=NCCc3c[nH]c1c32 [FBA-TPQ, 7-(4-fluorobenzylamino)-1,3,4,8-tetrahydropyrrolo[4,3,2-de]quinolin-8(1H)-one]",increase of apoptotic index vs control cells,[1],two-fold
same,IC50,[2],540 ± 30 nM
